This test concerns leech-derived protein according to the invention. The experiment in a line: Effect of typical inhibitors on the activity of the protein. Conditions: for IC50: read-out: IC50 (mM), dose of inhibitor which gave half maximal inhibition. The test is classed as biochemical, Hirudo medicinalis. As to the method:
Any hydrolysis of the chromogenic substrates. S2251, S2586, S2288. […] A preferred assay method is described below. Preparations for assay are reconstituated or diluted in assay buffer: 50 mM Tris, 0.2M NaCl, 0.05% casein (Hammerstan grade from British Drug Houses), 0.1% Brij 35, 0.01% sodium azide, pH8.0. Activity is det.ermined using modification of the AZOCCLL assay adapted to microtitre plates. Aliquots (100 microliters) of protein. in a range of dilutions in assay buffer, are incubated with a suspension of washed substrate (100 microliters: 10mg/ml) at 37 degrees Celsius. At the end of the incubation period which varies according to the experiment and dose of protein, the undigested substrate is sedimented by centrifugation and aliquots (100 microliters) of the supernatants transferred to another plate in which the absorbance at 560 nm is measured. Protein activity can be expressed as milliequivalent units of bacterial collagenase (Clostridium histolyticum) assayed at the same time under the same conditions.
The effect of some typical inhibitors was examined. The protein (5000 units/ml of a preparation of specific activity 10,000-20,000 units/mg) was incubated with DTT, cysteine, EDTA and leech anti-chymotrypsin in a range of concentrations with substrate. […] The effects of orthophenanthroline (2 mM): TIMP (tissue inhibitor of metallo-proteinase) 0.4 micrograms with APMA (0.5 mM) and with pre-incubation for 15 min): SBTI (7.5 micrograms and 30 min pre-incubation): and PMSF ([…] with 30 min pre-incubation) were also studied.

Setting [1] is: protein 5000 units/ml, o-phenanthroline 2 mM, TIMP 0.4 micrograms, SBTI 7.5 micrograms, PMSF single dose only.

Read-outs that look alike come from different tables or passages of the source.

Broadly, the IC50 is the point on the concentration scale where inhibition reaches its midpoint.

For `O[C@H](CS)[C@H](O)CS` (racemic) [Dithiothreitol], the “effect of inhibitor on activity of the protein” value (shortened to “effect of inhibitor”) (protein 5000 units/ml) is reported as “destroyed activity”. Moreover, the concentration for half-maximal inhibition (IC50) under setting [1] came to 0.2 mM. Regarding `[N-]=[N+]=[N-]` [sodium azide], the “effect of inhibitor” value (protein 5000 units/ml) is listed as “did not inhibit activity”. For the molecule `N[C@@H](CS)C(=O)O` [Cysteine], where the note is “protein 5000 units/ml”, the “effect of inhibitor” value was “destroyed activity”. Moreover, the half-inhibitory concentration (IC50) under setting [1] stood at 3 mM. Regarding `c1cnc2c(c1)ccc1cccnc12` [o-Phenanthroline], the “effect of inhibitor” value (protein 5000 units/ml) is “did not inhibit activity”. Under setting [1], the “IC50 (mM), dose of inhibitor which gave half maximal inhibition” value is “No effect”.

For `O=S(=O)(F)Cc1ccccc1` [PMSF], under “protein 5000 units/ml”, the “effect of inhibitor” value is listed as “did not inhibit activity”. Also, the “IC50 (mM), dose of inhibitor which gave half maximal inhibition” value under setting [1] was “No effect”. In the case of `O=C(O)CN(CCN(CC(=O)O)CC(=O)O)CC(=O)O` [EDTA], the “effect of inhibitor” value was “destroyed activity” and the IC50 came to 2 mM.

B1: SBTI: soybean trypsin inhibitor (protein, UniProt P01070 25-205, looked up)
Trypsin inhibitor A: DFVLDNEGNPLENGGTYYILSDITAFGGIRAAPTGNERCPLTVVQSRNELDKGIGTIISSPYRIRFIAEGHPLSLKFDSFAVIMLCVGIPTEWSVVEDLPEGPAVKIGENKDAMDGWFRLERVSDDEFNNYKLVFCPQQAEDDKCGDIGISIDHDDGTRRLVVSKNKPLVVQFQKLDKESL
Regarding B1, the “effect of inhibitor” value (protein 5000 units/ml) is reported as “did not inhibit activity”. In addition, the “IC50 (mM), dose of inhibitor which gave half maximal inhibition” value under setting [1] is listed as “No effect”.
